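Interpolation was linear, between the two tested concentrations surrounding the appropriate level; five concentrations were tested over 48 hours in 96-well plates. GI50 = concentration required for 50% inhibition of growth. TGI marks complete inhibition of growth.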
Tests used:
Test in all cases: NCI tumour cell line growth inhibition, 48 h
CAKI-1 renal = tested on: CAKI-1 renal
HCC-2998 colon = tested on: HCC-2998 colon
TK-10 renal = tested on: TK-10 renal
M14 melanoma = tested on: M14 melanoma
ACHN renal = tested on: ACHN renal
SW-620 colon = tested on: SW-620 colon
IGROV1 ovarian = tested on: IGROV1 ovarian
UACC-62 melanoma = tested on: UACC-62 melanoma
SR leukemia = tested on: SR leukemia
SF-539 CNS = tested on: SF-539 CNS
HS 578T breast = tested on: HS 578T breast
UACC-257 melanoma = tested on: UACC-257 melanoma
A549 NSCLC = tested on: A549 NSCLC
NCI/ADR-RES ovarian = tested on: NCI/ADR-RES ovarian
MCF7 breast = tested on: MCF7 breast
SN12C renal = tested on: SN12C renal
HCT-116 colon = tested on: HCT-116 colon
COLO 205 colon = tested on: COLO 205 colon
UO-31 renal = tested on: UO-31 renal
U251 CNS = tested on: U251 CNS
K-562 leukemia = tested on: K-562 leukemia
OVCAR-4 ovarian = tested on: OVCAR-4 ovarian
SF-268 CNS = tested on: SF-268 CNS
HL-60(TB) leukemia = tested on: HL-60(TB) leukemia
BT-549 breast = tested on: BT-549 breast
SK-MEL-28 melanoma = tested on: SK-MEL-28 melanoma
SF-295 CNS = tested on: SF-295 CNS
NCI-H23 lung = tested on: NCI-H23 lung
NCI-H226 lung = tested on: NCI-H226 lung
SK-OV-3 ovarian = tested on: SK-OV-3 ovarian
786-0 renal = tested on: 786-0 renal
NCI-H522 lung = tested on: NCI-H522 lung
MDA-MB-231 breast = tested on: MDA-MB-231 breast
OVCAR-8 ovarian = tested on: OVCAR-8 ovarian
KM12 colon = tested on: KM12 colon
MALME-3M melanoma = tested on: MALME-3M melanoma
NCI-H460 lung = tested on: NCI-H460 lung
HOP-62 NSCLC = tested on: HOP-62 NSCLC
MOLT-4 leukemia = tested on: MOLT-4 leukemia
MDA-MB-435 = tested on: MDA-MB-435
SK-MEL-5 melanoma = tested on: SK-MEL-5 melanoma
DU-145 prostate = tested on: DU-145 prostate
A498 renal = tested on: A498 renal
HCT-15 colon = tested on: HCT-15 colon
OVCAR-5 ovarian = tested on: OVCAR-5 ovarian
PC-3 prostate = tested on: PC-3 prostate
HOP-92 NSCLC = tested on: HOP-92 NSCLC
EKVX NSCLC = tested on: EKVX NSCLC
SNB-75 CNS = tested on: SNB-75 CNS
T-47D breast = tested on: T-47D breast
LOX IMVI melanoma = tested on: LOX IMVI melanoma
CCRF-CEM leukemia = tested on: CCRF-CEM leukemia
RPMI-8226 leukemia = tested on: RPMI-8226 leukemia
OVCAR-3 ovarian = tested on: OVCAR-3 ovarian
SK-MEL-2 melanoma = tested on: SK-MEL-2 melanoma
HT29 colon = tested on: HT29 colon
SNB-19 CNS = tested on: SNB-19 CNS
RXF 393 renal = tested on: RXF 393 renal

For CN1CCN(Cc2ccc(NC(=O)c3cncc(C#Cc4cnc5ccc(OCC(F)F)nn45)c3)cc2C(F)(F)F)CC1, the GI50 (CAKI-1 renal) was 473 nM, the TGI (CAKI-1 renal) was 1390 nM and the GI50 (HCC-2998 colon) was 516 nM. For the same compound, the TGI (HCC-2998 colon) was 1610 nM, the GI50 (TK-10 renal) was 749 nM and the TGI (TK-10 renal) was 1460 nM. It also gave a GI50 (M14 melanoma) of 167 nM, a TGI (M14 melanoma) of 619 nM and a GI50 (ACHN renal) of 482 nM. For the same compound, the TGI (ACHN renal) was 1210 nM, the GI50 (SW-620 colon) was 275 nM and the TGI (SW-620 colon) was 1200 nM. The GI50 (IGROV1 ovarian) was 242 nM, the TGI (IGROV1 ovarian) was 1030 nM and the GI50 (UACC-62 melanoma) was 630 nM. It also gave a TGI (UACC-62 melanoma) of 1330 nM, a GI50 (SR leukemia) of 206 nM and a TGI (SR leukemia) of 1100 nM. For the same compound, the GI50 (SF-539 CNS) was 438 nM, the TGI (SF-539 CNS) was 1100 nM and the GI50 (HS 578T breast) was 944 nM. It also gave a TGI (HS 578T breast) of 3200 nM, a GI50 (UACC-257 melanoma) of 282 nM and a TGI (UACC-257 melanoma) of 963 nM. The GI50 (A549 NSCLC) was 221 nM, the TGI (A549 NSCLC) was 612 nM and the GI50 (NCI/ADR-RES ovarian) was 1040 nM. The TGI (NCI/ADR-RES ovarian) was 5090 nM, the GI50 (MCF7 breast) was 110 nM and the TGI (MCF7 breast) was 649 nM. For the same compound, the GI50 (SN12C renal) was 500 nM, the TGI (SN12C renal) was 1170 nM and the GI50 (HCT-116 colon) was 164 nM. For the same compound, the TGI (HCT-116 colon) was 606 nM, the GI50 (COLO 205 colon) was 428 nM and the TGI (COLO 205 colon) was 1150 nM. It also gave a GI50 (UO-31 renal) of 571 nM, a TGI (UO-31 renal) of 1200 nM and a GI50 (U251 CNS) of 646 nM. The TGI (U251 CNS) was 1340 nM, the GI50 (K-562 leukemia) was 5 nM and the TGI (K-562 leukemia) was 818 nM. For the same compound, the GI50 (OVCAR-4 ovarian) was 562 nM, the TGI (OVCAR-4 ovarian) was 1510 nM and the GI50 (SF-268 CNS) was 520 nM. For the same compound, the TGI (SF-268 CNS) was 1430 nM, the GI50 (HL-60(TB) leukemia) was 222 nM and the TGI (HL-60(TB) leukemia) was 724 nM. For the same compound, the GI50 (BT-549 breast) was 930 nM, the TGI (BT-549 breast) was 1690 nM and the GI50 (SK-MEL-28 melanoma) was 670 nM. The TGI (SK-MEL-28 melanoma) was 1520 nM, the GI50 (SF-295 CNS) was 387 nM and the TGI (SF-295 CNS) was 1200 nM. The GI50 (NCI-H23 lung) was 340 nM, the TGI (NCI-H23 lung) was 1230 nM and the GI50 (NCI-H226 lung) was 451 nM. For the same compound, the TGI (NCI-H226 lung) was 1270 nM, the GI50 (SK-OV-3 ovarian) was 1510 nM and the TGI (SK-OV-3 ovarian) was 3780 nM. The GI50 (786-0 renal) was 451 nM, the TGI (786-0 renal) was 1100 nM and the GI50 (NCI-H522 lung) was 666 nM. The TGI (NCI-H522 lung) was 1530 nM, the GI50 (MDA-MB-231 breast) was 181 nM and the TGI (MDA-MB-231 breast) was 841 nM. It also gave a GI50 (OVCAR-8 ovarian) of 705 nM, a TGI (OVCAR-8 ovarian) of 1560 nM and a GI50 (KM12 colon) of 5 nM. For the same compound, the TGI (KM12 colon) was 739 nM, the GI50 (MALME-3M melanoma) was 120 nM and the TGI (MALME-3M melanoma) was 485 nM. The GI50 (NCI-H460 lung) was 369 nM, the TGI (NCI-H460 lung) was 1070 nM and the GI50 (HOP-62 NSCLC) was 729 nM. The TGI (HOP-62 NSCLC) was 1640 nM, the GI50 (MOLT-4 leukemia) was 299 nM and the TGI (MOLT-4 leukemia) was 2790 nM. The GI50 (MDA-MB-435) was 218 nM, the TGI (MDA-MB-435) was 812 nM and the GI50 (SK-MEL-5 melanoma) was 511 nM. For the same compound, the TGI (SK-MEL-5 melanoma) was 1220 nM, the GI50 (DU-145 prostate) was 339 nM and the TGI (DU-145 prostate) was 929 nM. The GI50 (A498 renal) was 1370 nM, the TGI (A498 renal) was 2540 nM and the GI50 (HCT-15 colon) was 207 nM. For the same compound, the TGI (HCT-15 colon) was 909 nM, the GI50 (OVCAR-5 ovarian) was 680 nM and the TGI (OVCAR-5 ovarian) was 1890 nM. The GI50 (PC-3 prostate) was 457 nM, the TGI (PC-3 prostate) was 1970 nM and the GI50 (HOP-92 NSCLC) was 101 nM. It also gave a TGI (HOP-92 NSCLC) of 359 nM, a GI50 (EKVX NSCLC) of 348 nM and a TGI (EKVX NSCLC) of 1020 nM. The GI50 (SNB-75 CNS) was 580 nM, the TGI (SNB-75 CNS) was 1260 nM and the GI50 (T-47D breast) was 419 nM. For the same compound, the TGI (T-47D breast) was 1170 nM, the GI50 (LOX IMVI melanoma) was 235 nM and the TGI (LOX IMVI melanoma) was 838 nM. The GI50 (CCRF-CEM leukemia) was 192 nM, the TGI (CCRF-CEM leukemia) was 4310 nM and the GI50 (RPMI-8226 leukemia) was 515 nM. For the same compound, the TGI (RPMI-8226 leukemia) was 2180 nM, the GI50 (OVCAR-3 ovarian) was 460 nM and the TGI (OVCAR-3 ovarian) was 1260 nM. The GI50 (SK-MEL-2 melanoma) was 600 nM, the TGI (SK-MEL-2 melanoma) was 1280 nM and the GI50 (HT29 colon) was 282 nM. It also gave a TGI (HT29 colon) of 1000 nM, a GI50 (SNB-19 CNS) of 1090 nM and a TGI (SNB-19 CNS) of 2850 nM. The GI50 (RXF 393 renal) was 379 nM and the TGI (RXF 393 renal) was 1060 nM.

Reference: PubChem BioAssay (NCI)
